How the values were obtained:
[1] = In vivo kinetics experiment (radioactivity distribution); set-up: species or system Wistar male rat; conditions: rat i.v., mean ± SD
Method in brief: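 Male Wistar rats (9 weeks) under isoflurane received approximately 1 to 3.7 MBq radiotracer in saline with 1 w/v % ascorbic acid by tail-vein injection. At 10, 30 and 60 min, rats were exsanguinated; blood, organs and remaining body weighed and counted, giving % ID/g and adrenal-to-tissue ratios.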

[2] = Plasma stability evaluation (TLC analysis); format: in vitro ADME; conditions: 37° C., 60 minutes, TLC analysis
Method in brief: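 Radiolabelled compounds were incubated in heparin-treated pooled normal human plasma at 37° C for 60 minutes. After methanol deproteinization and centrifugation, stability was assessed by TLC under the conditions used for each compound's synthesis.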

[3] = test system: human adrenal gland section expressing aldosterone-producing adenoma; experiment: In vitro autoradiography using human adrenal adenoma; format: binding; conditions: section of FIG. 17(b)
Method in brief: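 Frozen 7-μm sections of human adrenal bearing aldosterone-producing adenoma were immersed 10 min in radioligand (5-33 kBq/mL) in PBS with 1% fatty-acid-free BSA, washed, then exposed to imaging plates for 16-20 h. Equal-area ROI PSL in adenoma (B2) versus normal cortex (B1) gave B2/B1, corrected for nuclide half-life, added activity and exposure time.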

SMILES: CCn1c(-c2cncc(Cn3ccnc3)c2)nc2ccc([123I])cc21 [[^123I] 608, 2-[5-{(1H-imidazol-1-yl)methyl}pyridin-3-yl]-1-ethyl-6-[^123I]iodo-1H-benzo[d]imidazole]
- Adrenal gland/blood ratio of radioactivity accumulation ([1]; 10 min after administration): 75.29 ± 24.87
- Adrenal gland/fat ratio of radioactivity accumulation ([1]; 10 min after administration): 90.02 ± 14.66
- Adrenal gland/kidney ratio of radioactivity accumulation ([1]; 10 min after administration): 4.95 ± 1.61
- Adrenal gland/liver ratio of radioactivity accumulation ([1]; 10 min after administration): 2.86 ± 0.42
- Adrenal gland/muscle ratio of radioactivity accumulation ([1]; 10 min after administration): 57.35 ± 15.85
- Adrenal gland/small intestine ratio of radioactivity accumulation ([1]; 10 min after administration): 5.04 ± 0.35
- Radioactivity distribution Adrenal gland ([1]; 10 min after administration): 8.76 ± 2.34 % ID/g
- Radioactivity distribution Bladder (including urine) ([1]; 10 min after administration): 0.82 ± 0.43 % ID/g
- Radioactivity distribution Blood ([1]; 10 min after administration): 0.12 ± 0.01 % ID/g
- Radioactivity distribution Fat ([1]; 10 min after administration): 0.10 ± 0.01 % ID/g
- Radioactivity distribution Femur ([1]; 10 min after administration): 0.82 ± 0.05 % ID/g
- Radioactivity distribution Heart ([1]; 10 min after administration): 0.74 ± 0.09 % ID/g
- Radioactivity distribution Kidney ([1]; 10 min after administration): 1.79 ± 0.11 % ID/g
- Radioactivity distribution Large intestine ([1]; 10 min after administration): 0.12 ± 0.01 % ID/g
- Radioactivity distribution Liver ([1]; 10 min after administration): 3.03 ± 0.36 % ID/g
- Radioactivity distribution Lung ([1]; 10 min after administration): 1.11 ± 0.11 % ID/g
- Radioactivity distribution Muscle (lower limbs) ([1]; 10 min after administration): 0.15 ± 0.00 % ID/g
- Radioactivity distribution Remaining whole body ([1]; 10 min after administration): 0.29 ± 0.05 % ID/g
- Radioactivity distribution Small intestine ([1]; 10 min after administration): 1.74 ± 0.42 % ID/g
- Radioactivity distribution Spleen ([1]; 10 min after administration): 3.79 ± 1.44 % ID/g
- Radioactivity distribution Stomach ([1]; 10 min after administration): 0.53 ± 0.16 % ID/g
- Radioactivity distribution Testis ([1]; 10 min after administration): 0.07 ± 0.01 % ID/g
- Radioactivity distribution Whole brain ([1]; 10 min after administration): 0.03 ± 0.01 % ID/g
- Adrenal gland/blood ratio of radioactivity accumulation ([1]; 30 min after administration): 172.72 ± 25.00
- Adrenal gland/fat ratio of radioactivity accumulation ([1]; 30 min after administration): 103.83 ± 16.66
- Adrenal gland/kidney ratio of radioactivity accumulation ([1]; 30 min after administration): 5.90 ± 0.47
- Adrenal gland/liver ratio of radioactivity accumulation ([1]; 30 min after administration): 10.03 ± 1.46
- Adrenal gland/muscle ratio of radioactivity accumulation ([1]; 30 min after administration): 65.62 ± 16.66
- Adrenal gland/small intestine ratio of radioactivity accumulation ([1]; 30 min after administration): 3.39 ± 0.42
- Radioactivity distribution Adrenal gland ([1]; 30 min after administration): 10.75 ± 1.11 % ID/g
- Radioactivity distribution Bladder (including urine) ([1]; 30 min after administration): 2.70 ± 1.51 % ID/g
- Radioactivity distribution Blood ([1]; 30 min after administration): 0.06 ± 0.01 % ID/g
- Radioactivity distribution Fat ([1]; 30 min after administration): 0.10 ± 0.01 % ID/g
- Radioactivity distribution Femur ([1]; 30 min after administration): 1.17 ± 0.02 % ID/g
- Radioactivity distribution Heart ([1]; 30 min after administration): 0.76 ± 0.16 % ID/g
- Radioactivity distribution Kidney ([1]; 30 min after administration): 1.82 ± 0.08 % ID/g
- Radioactivity distribution Large intestine ([1]; 30 min after administration): 0.11 ± 0.00 % ID/g
- Radioactivity distribution Liver ([1]; 30 min after administration): 1.08 ± 0.13 % ID/g
- Radioactivity distribution Lung ([1]; 30 min after administration): 1.14 ± 0.08 % ID/g
- Radioactivity distribution Muscle (lower limbs) ([1]; 30 min after administration): 0.17 ± 0.03 % ID/g
- Radioactivity distribution Remaining whole body ([1]; 30 min after administration): 0.30 ± 0.00 % ID/g
- Radioactivity distribution Small intestine ([1]; 30 min after administration): 3.18 ± 0.18 % ID/g
- Radioactivity distribution Spleen ([1]; 30 min after administration): 4.81 ± 0.73 % ID/g
- Radioactivity distribution Stomach ([1]; 30 min after administration): 1.34 ± 0.66 % ID/g
- Radioactivity distribution Testis ([1]; 30 min after administration): 0.11 ± 0.00 % ID/g
- Radioactivity distribution Whole brain ([1]; 30 min after administration): 0.02 ± 0.00 % ID/g
- Adrenal gland/blood ratio of radioactivity accumulation ([1]; 60 min after administration): 345.58 ± 116.00
- Adrenal gland/fat ratio of radioactivity accumulation ([1]; 60 min after administration): 158.96 ± 131.25
- Adrenal gland/kidney ratio of radioactivity accumulation ([1]; 60 min after administration): 10.46 ± 6.81
- Adrenal gland/liver ratio of radioactivity accumulation ([1]; 60 min after administration): 25.91 ± 10.25
- Adrenal gland/muscle ratio of radioactivity accumulation ([1]; 60 min after administration): 113.23 ± 76.79
- Adrenal gland/small intestine ratio of radioactivity accumulation ([1]; 60 min after administration): 3.39 ± 1.14
- Radioactivity distribution Adrenal gland ([1]; 60 min after administration): 15.22 ± 7.58 % ID/g
- Radioactivity distribution Bladder (including urine) ([1]; 60 min after administration): 2.67 ± 0.43 % ID/g
- Radioactivity distribution Blood ([1]; 60 min after administration): 0.04 ± 0.01 % ID/g
- Radioactivity distribution Fat ([1]; 60 min after administration): 0.11 ± 0.04 % ID/g
- Radioactivity distribution Femur ([1]; 60 min after administration): 1.28 ± 0.07 % ID/g
- Radioactivity distribution Heart ([1]; 60 min after administration): 0.72 ± 0.09 % ID/g
- Radioactivity distribution Kidney ([1]; 60 min after administration): 1.55 ± 0.21 % ID/g
- Radioactivity distribution Large intestine ([1]; 60 min after administration): 0.16 ± 0.07 % ID/g
- Radioactivity distribution Liver ([1]; 60 min after administration): 0.57 ± 0.06 % ID/g
- Radioactivity distribution Lung ([1]; 60 min after administration): 0.94 ± 0.08 % ID/g
- Radioactivity distribution Muscle (lower limbs) ([1]; 60 min after administration): 0.15 ± 0.03 % ID/g
- Radioactivity distribution Remaining whole body ([1]; 60 min after administration): 0.28 ± 0.01 % ID/g
- Radioactivity distribution Small intestine ([1]; 60 min after administration): 4.35 ± 0.69 % ID/g
- Radioactivity distribution Spleen ([1]; 60 min after administration): 4.13 ± 1.21 % ID/g
- Radioactivity distribution Stomach ([1]; 60 min after administration): 1.15 ± 0.26 % ID/g
- Radioactivity distribution Testis ([1]; 60 min after administration): 0.09 ± 0.01 % ID/g
- Radioactivity distribution Whole brain ([1]; 60 min after administration): 0.02 ± 0.00 % ID/g
- Radiochemical purity after incubation in human plasma [2]: 88%
- B2/B1 accumulation ratio [3]: 1.08
- B2 (PSL value, aldosterone-producing adenoma) ([3]; site 71b): 3580
- B1 (PSL value, normal adrenal cortex) ([3]; site 72b): 3303

Source: patent US10358434B2, “2-(3-pyridinyl)-1H-benzimidazole derivative compound and medicament containing same” (NIHON MEDI-PHYSICS CO., LTD., priority 2014, dated 2019)
